Assay results: patent US8329735B2, “Tetrazole compounds which selectively modulate the CB2 receptor” (Boehringer Ingelheim International GmbH, priority 2010, dated 2012)
Values after ≈ are worked out from the molar mass of the structure shown. Where two headings read alike, the source gives them in different places.

Columns and labels:
[1] = system: Salmonella bacterial strains TA98 and TA100; test: Ames mutagenicity assay: bacteria reverse mutation screening assay; type: cell-based; settings: TA98 and TA100, presence or absence of S9
Method: The Ames ^(1) Salmonella bacterial strains used in the abbreviated screening assay ^(2) are TA98 and TA100. Actively growing (log phase) bacteria are incubated with test compound and trace amounts of histidine in the presence or absence of S9 for 48 hours on minimal agar plates. Test compound is dissolved in DMSO to a final concentration of 100 mg/ml. The stock is serially diluted to yield concentrations of 100, 50, 25 12.5 and 6.3 mg/ml. Fifty microliters of dosing solution is combined with top agar and buffer (or S9 mix) and poured on duplicate plates to yield effective doses of 5000, 2500, 1250, 625 and 313 μg/plate. Positive and negative controls plates are included. Formation of colonies after 48 hr incubation at 37° C. is an indication of genetic reversion, either arising spontaneously or caused by the test compound. The average number of spontaneous colonies growing on control plates is compared to the number of colonies on test plates. A fold increase of 2-3× over background is generally considered a positive response for mutagenicity. • 1. Maron, D. M. and Ames, B. N. (1983). “Revised Methods for the Salmonella Mutagenicity Test”. Mutat. Res. 113, 173-215. • 2. D. A. Burke, D. J. Wedd, and B. Burlinson (1996). “Use of the Miniscreen assay to screen novel compounds for bacterial mutagenicity in the pharmaceutical industry”. Mutagenesis 11: 201-205.

human CB2R = molecular target: T1, human CB2R (Homo sapiens, UniProt P34972); test: CB2R mediated modulation of cAMP synthesis; type: cell-based
T1 construct: host or cells: CHO cells
Method: Compounds of the invention are evaluated for their CB2 agonist or inverse agonistic activity in accordance with the following experimental method.
(§1) CHO cells expressing human CB2R (Euroscreen) are plated at a density of 5000 cells per well in 384 well plates and incubated overnight at 37° C. After removing the media, the cells are treated with test compounds diluted in stimulation buffer containing 1 mM IBMX, 0.25% BSA and 10 uM Forskolin. The assay is incubated for 30 minutes at 37° C. Cells are lysed and the cAMP concentration is measured using DiscoverX—XS cAMP kit, following the manufacturer's protocol. In this setting, agonists will decrease forskolin induced production of cAMP while inverse agonists will further increase forskolin induced production of cAMP. EC50 of agonists are calculated as follows. The maximal amount of cAMP produced by forskolin compared to the level of cAMP inhibited by 1 uM CP55940 is defined as 100%. The EC50 value of each test compound is determined as the concentration at which 50% of the forskolin-stimulated cAMP synthesis is inhibited. Data is analyzed using a four-parameter logistic model. (Model 205 of XLfit 4.0).

human CB1R = molecular target: T2, human CB1R (Homo sapiens, UniProt P21554); test: CB1R mediated modulation of cAMP synthesis; type: cell-based; settings: CHO cells expressing human CB1R, forskolin-stimulated cAMP
T2 construct: host or cells: CHO cells
Method: Compounds of the invention are evaluated for their CB1 agonist or inverse agonistic activity in accordance with the following experimental method.
as §1, with “CB1R” for “CB2R”

[2] = Human microsomal stability assay; type: in vitro ADME; settings: human liver microsomes 1 mg protein/ml, 1 uM compound, pH 7.4
Method: The double time point high throughput screen for human liver microsomal metabolic stability is used to measure the in vitro metabolism of test compounds by human liver microsomal enzymes. The data collected are analyzed to calculate a half-life (t½, min) and clearance (expressed as percent hepatic blood flow, % QH) for test compounds. The assay is performed in 50 mM potassium phosphate buffer, pH 7.4 and 2.5 mM NADPH. Test samples are dissolved in DMSO and acetonitrile for a final assay concentration of 1 uM. Human liver microsomes are diluted in assay buffer to a final assay concentration of 1 mg protein/ml. Compound solution and microsome suspension are added to assay buffer for a final incubation volume of 350 ul. The preparation is incubated for 5 min in a 37° C. water bath. The reaction is started by the addition of NADPH. Volumes of 80 ul are removed from the incubation mix at 0, 5, and 30 min after the start of the reaction and added to 160 ul acetonitrile. The supernatant is transferred to 0.25 mm glass fiber filter plates and centrifuged for 5 min at 3000 rpm. Injection volumes of 10 ul are typically added to HPLC columns with formic acid in water or acetonitrile at a flow rate of 0.3 ml/min. Percent loss of parent compound is calculated from the area under each time point to determine the half-life and clearance. Preferred compounds of the invention will have a human liver microsomal stability of <25% QH.

[3] = Aqueous (equilibrium) solubility assay; type: physicochemical; settings: aqueous buffer, thermodynamic from solid, 48 hrs equilibrium
Method: The equilibrium solubility of compounds is determined in pH 2, 4.5, 6.8 buffers. Prior to solubility measurement, the crystalline/amorphous characteristics of the sample are determined by observing the powder form under polarized light microscope. Solubility is only measured when compound is crystalline.
Approximately 2 mg of compound are weighed out into a vial and 1-2 ml of buffer are added into the vial (pHs 2 & 4.5, use 1 ml and for pHs 6.8 and 7.4 use 2 ml of buffer). The vial is rotated for 48 hrs protected from light. After 48 hrs, the sample is transferred into an eppendorf tube and centrifuged for 10 minutes at 14,000 RPM, if the supernatant is not clear, it is filtered (PVDF filter). The clear supernatant is diluted if necessary, before analyzing via HPLC. The final pH of the supernatant or the filtrate is measured and reported. The external calibration curve is used to determine the solubility value. The percentage of extraneous peaks relative to the parent peak is monitored in the standard solution as well as the solubility sample. Preferred compounds of the invention will have a solubility of >100 μg/ml.

[4] = pH 4.5 buffer, read-out: solubility at pH 4.5
[5] = pH 6.8 buffer, read-out: solubility at pH 6.8
[6] = Table XI, CHO cells expressing human CB2R, forskolin-stimulated cAMP, read-out: CB2 CAMP EC50
[7] = Table XI, read-out: CB1 CAMP EC50

T2 sequence (P21554 whole entry): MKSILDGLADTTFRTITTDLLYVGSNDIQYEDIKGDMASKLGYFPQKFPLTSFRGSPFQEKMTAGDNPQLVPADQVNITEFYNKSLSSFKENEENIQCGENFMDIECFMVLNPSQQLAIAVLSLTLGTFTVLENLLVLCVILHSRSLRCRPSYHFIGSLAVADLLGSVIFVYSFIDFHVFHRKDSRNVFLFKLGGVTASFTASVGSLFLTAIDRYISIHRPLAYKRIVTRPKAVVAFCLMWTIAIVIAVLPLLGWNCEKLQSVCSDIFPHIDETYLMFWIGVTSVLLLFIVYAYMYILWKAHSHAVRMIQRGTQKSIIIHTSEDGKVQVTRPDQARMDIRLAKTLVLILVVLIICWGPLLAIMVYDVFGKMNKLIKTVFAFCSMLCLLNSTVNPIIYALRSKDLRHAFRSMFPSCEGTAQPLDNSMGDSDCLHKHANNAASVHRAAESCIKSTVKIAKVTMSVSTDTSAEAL
T1 sequence (P34972 whole entry): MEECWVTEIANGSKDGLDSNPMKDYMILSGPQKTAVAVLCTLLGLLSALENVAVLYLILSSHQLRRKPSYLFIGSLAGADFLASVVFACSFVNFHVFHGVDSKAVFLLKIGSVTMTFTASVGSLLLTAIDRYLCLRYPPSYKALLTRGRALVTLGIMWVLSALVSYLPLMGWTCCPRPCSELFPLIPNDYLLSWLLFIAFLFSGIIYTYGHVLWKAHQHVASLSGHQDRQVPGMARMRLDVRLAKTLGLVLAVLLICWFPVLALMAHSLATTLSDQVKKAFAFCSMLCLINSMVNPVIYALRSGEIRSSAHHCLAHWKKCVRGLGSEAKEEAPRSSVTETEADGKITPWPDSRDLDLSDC

Compound	Ames [1]	EC50 (human CB2R)	EC50 (human CB1R; CB1 CAMP EC50, Table XI)	EC50 (human CB1R; CB1 EC50, Table II)	HLM clearance (percent hepatic blood flow) [2]	solubility at 48 h [3, 4]	solubility at 48 h [3, 5]	EC50 (human CB2R; [6])	EC50 (human CB1R; [7])	EC50 (human CB2R; Table II, CHO cells expressing human CB2R, forskolin-stimulated cAMP, read-out: CB2 EC50)	EC50 (human CB1R; Table II, read-out: CB1 EC50)
CC(C)(C)n1nnc(NC(=O)C(C)(C)S(=O)(=O)C2CCOCC2)n1 [Table II compound 1]	negative	0.021 µM	> 50 µM	> 20 µM	<30.10 QH %	> 2.12 mg/mL	> 1.75 mg/mL				
CC(C)(C)c1cc(NC(=O)C(C)(C)S(=O)(=O)c2ccc(F)cc2)no1 [Example 130 WO08014199]	negative	0.0024 µM	2.24 µM		68 QH %	0.0052 mg/mL (≈ 14.1 µM)	0.0047 mg/mL (≈ 12.8 µM)				
CCC(C)S(=O)(=O)C(C)(C)C(=O)Nc1cc(C(C)(C)C)on1 (stereo not shown) [Example 42 WO08039645]	negative	0.019 µM	> 20 µM		68 QH %	0.02 mg/mL (≈ 60.5 µM)					
Cn1nc(C(C)(C)C)cc1NC(=O)C(C)(C)S(=O)(=O)C1CCOCC1 [Example 69 WO08039645]	positive				<30.10 QH %	1.04 mg/mL (≈ 2810 µM)	1.23 mg/mL (≈ 3320 µM)	0.216 µM	> 20 µM		
Cn1nc(C(C)(C)C)cc1NC(=O)C(C)(C)S(=O)(=O)c1ccc(F)cc1 [Example 251 WO08014199]	positive	0.00257 µM	10.9 µM		30 QH %	0.137 mg/mL (≈ 359 µM)	0.148 mg/mL (≈ 388 µM)				
CC[C@H](C)S(=O)(=O)C(C)(C)C(=O)Nc1nnn(C(C)(C)C)n1 [Table II compound 5]	negative				<30.10 QH %	1.21 mg/mL (≈ 3640 µM)	1.15 mg/mL (≈ 3470 µM)		> 50 µM	0.101 µM	> 50 µM
CC(C)(C)n1nnc(NC(=O)C(C)(C)S(=O)(=O)c2ccc(F)cc2)n1 [Table II compound 6]	negative	0.022 µM	39.5 µM	39.5 µM	<30 QH %	0.133 mg/mL (≈ 360 µM)	0.122 mg/mL (≈ 330 µM)				
CC(C)(C)n1nnc(NC(=O)C(C)(C)S(=O)(=O)[C@H]2CC[C@@H](O)CC2)n1		0.0087 µM		> 50 µM							
Cn1nc(C(C)(C)C)cc1NC(=O)C(C)(C)S(=O)(=O)CC1CCOCC1 [Example 59 WO08039645]	positive				<30.10 QH %	0.396 mg/mL (≈ 1030 µM)	0.452 mg/mL (≈ 1170 µM)	0.14 µM	> 20 µM		
CCC(C)S(=O)(=O)C(C)(C)C(=O)Nc1nc(C(C)(C)C)cs1 (stereo not shown) [Example 44 WO08039645]	negative	0.014 µM	10.7 µM		67 QH %	0.013 mg/mL (≈ 37.5 µM)					
CC(C)(C)c1csc(NC(=O)C(C)(C)S(=O)(=O)CC2CCOCC2)n1 [Example 57 WO08039645]	negative	0.023 µM	2.4 µM		87 QH %	0.383 mg/mL (≈ 986 µM)	0.406 mg/mL (≈ 1040 µM)				
CO[C@H]1CC[C@@H](S(=O)(=O)C(C)(C)C(=O)Nc2nnn(C(C)(C)C)n2)CC1		0.056 µM		> 50 µM							
CC(C)(C)c1csc(NC(=O)C(C)(C)S(=O)(=O)C2CCOCC2)n1 [Example 67 WO08039645]	negative	0.012 µM	11.4 µM		79 QH %	0.015 mg/mL (≈ 40.1 µM)	0.016 mg/mL (≈ 42.7 µM)				
CC(C)(C)c1cc(NC(=O)C(C)(C)S(=O)(=O)CC2CCOCC2)no1 [Example 56 WO08039645]	negative	0.0045 µM	> 20 µM		47 QH %	0.047 mg/mL (≈ 126 µM)	0.044 mg/mL (≈ 118 µM)				
CC(C)(C)n1nnc(NC(=O)C(C)(C)S(=O)(=O)CC[C@@H]2CCOC2)n1		0.012 µM		~50 µM							
